From ChEMBL document CHEMBL4507283, “Data for DCP probe BI-1935” (2021)

Columns and labels:
[1] = target: Activin receptor type-1-like (Homo sapiens) (UniProt P37023); settings: Compound concentration 1000.0 nM
[2] = target: Cyclin-dependent kinase-like 2 (Homo sapiens) (UniProt Q92772); settings: Compound concentration 1000.0 nM
[3] = target: Muscarinic acetylcholine receptor M3 (Homo sapiens) (UniProt P20309); settings: Compound concentration 10.0 uM
[4] = target: Proto-oncogene tyrosine-protein kinase receptor Ret (Homo sapiens) (UniProt P07949); settings: Compound concentration 1000.0 nM
[5] = target: Serine/threonine-protein kinase RIO3 (Homo sapiens) (UniProt O14730); settings: Compound concentration 1000.0 nM
[6] = target: Tyrosine-protein kinase Fyn (Homo sapiens) (UniProt P06241); settings: Compound concentration 1000.0 nM
[7] = target: Carbonic anhydrase 6 (Homo sapiens) (UniProt P23280); experiment: CANHYDRASE Eurofins-Panlabs selectivity data (BI); settings: Compound concentration 10.0 uM
[8] = target: Testis-specific serine/threonine-protein kinase 1 (Homo sapiens) (UniProt Q9BXA7); settings: Compound concentration 1000.0 nM
[9] = target: Ankyrin repeat and protein kinase domain-containing protein 1 (Homo sapiens) (UniProt Q8NFD2); settings: Compound concentration 1000.0 nM
[10] = target: Sigma intracellular receptor 2 (Homo sapiens) (UniProt Q5BJF2); settings: Compound concentration 10.0 uM
[11] = target: Calcium/calmodulin-dependent protein kinase type 1G (Homo sapiens) (UniProt Q96NX5); settings: Compound concentration 1000.0 nM
[12] = target: Cyclin-dependent kinase-like 1 (Homo sapiens) (UniProt Q00532); settings: Compound concentration 1000.0 nM
[13] = target: NUAK family SNF1-like kinase 1 (Homo sapiens) (UniProt O60285); settings: Compound concentration 1000.0 nM
[14] = target: Insulin receptor (Homo sapiens) (UniProt P06213); settings: Compound concentration 1000.0 nM
[15] = target: Calcium/calmodulin-dependent protein kinase type II subunit beta (Homo sapiens) (UniProt Q13554); settings: Compound concentration 1000.0 nM
[16] = target: MAP kinase-interacting serine/threonine-protein kinase 1 (Homo sapiens) (UniProt Q9BUB5); settings: Compound concentration 1000.0 nM
[17] = target: Serine/threonine-protein kinase 36 (Homo sapiens) (UniProt Q9NRP7); settings: Compound concentration 1000.0 nM
[18] = target: TRAF2 and NCK-interacting protein kinase (Homo sapiens) (UniProt Q9UKE5); settings: Compound concentration 1000.0 nM
[19] = test system: Receptor-type tyrosine-protein kinase FLT3 (Homo sapiens), P36888 [D835Y]; settings: Compound concentration 1000.0 nM
[20] = target: Tyrosine-protein kinase JAK1 (Homo sapiens) (UniProt P23458); settings: Compound concentration 1000.0 nM
[21] = target: Serine/threonine-protein kinase 26 (Homo sapiens) (UniProt Q9P289); settings: Compound concentration 1000.0 nM
[22] = target: Protein kinase C epsilon type (Homo sapiens) (UniProt Q02156); settings: Compound concentration 1000.0 nM
[23] = target: Interleukin-1 receptor-associated kinase 4 (Homo sapiens) (UniProt Q9NWZ3); settings: Compound concentration 1000.0 nM
[24] = target: Fibroblast growth factor receptor 1 (Homo sapiens) (UniProt P11362); settings: Compound concentration 1000.0 nM
[25] = target: Serotonin 1 (5-HT1) receptor (Rattus norvegicus) (UniProt P28564+P30940+P19327+P28565); experiment: 5HT1/R Eurofins-Panlabs selectivity data (BI); type: protein assay; settings: Compound concentration 10.0 uM
[26] = target: Myosin light chain kinase, smooth muscle (Homo sapiens) (UniProt Q15746); settings: Compound concentration 1000.0 nM
[27] = test system: Epidermal growth factor receptor (Homo sapiens), P00533 [UNDEFINED MUTATION]; settings: Compound concentration 1000.0 nM
[28] = target: Macrophage colony-stimulating factor 1 receptor (Homo sapiens) (UniProt P07333); settings: Compound concentration 1000.0 nM
[29] = target: Serine/threonine-protein kinase Nek11 (Homo sapiens) (UniProt Q8NG66); settings: Compound concentration 1000.0 nM
[30] = test system: Phosphatidylinositol 4,5-bisphosphate 3-kinase catalytic subunit alpha isoform (Homo sapiens), P42336 [E545A]; settings: Compound concentration 1000.0 nM
[31] = target: Mitogen-activated protein kinase 12 (Homo sapiens) (UniProt P53778); settings: Compound concentration 1000.0 nM
[32] = target: 5-hydroxytryptamine receptor 6 (Homo sapiens) (UniProt P50406); settings: Compound concentration 10.0 uM
[33] = target: Serine/threonine-protein kinase PAK 3 (Homo sapiens) (UniProt O75914); settings: Compound concentration 1000.0 nM
[34] = test system: Tyrosine-protein kinase ABL1 (Homo sapiens), P00519 [F317L]; settings: Compound concentration 1000.0 nM
[35] = target: Myosin light chain kinase 2, skeletal/cardiac muscle (Homo sapiens) (UniProt Q9H1R3); settings: Compound concentration 1000.0 nM
[36] = test system: Phosphatidylinositol 4,5-bisphosphate 3-kinase catalytic subunit alpha isoform (Homo sapiens), P42336 [C420R]; settings: Compound concentration 1000.0 nM
[37] = target: Ephrin type-A receptor 8 (Homo sapiens) (UniProt P29322); settings: Compound concentration 1000.0 nM
[38] = target: Mitogen-activated protein kinase 7 (Homo sapiens) (UniProt Q13164); settings: Compound concentration 1000.0 nM
[39] = target: Angiopoietin-1 receptor (Homo sapiens) (UniProt Q02763); settings: Compound concentration 1000.0 nM
[40] = target: Urotensin-2 receptor (Homo sapiens) (UniProt Q9UKP6); experiment: UROTENSIN_II Eurofins-Panlabs selectivity data (BI); settings: Compound concentration 10.0 uM
[41] = target: Homeodomain-interacting protein kinase 4 (Homo sapiens) (UniProt Q8NE63); settings: Compound concentration 1000.0 nM
[42] = target: Phosphatidylinositol 3-kinase C2 domain-containing subunit gamma (Homo sapiens) (UniProt O75747); settings: Compound concentration 1000.0 nM
[43] = target: Tyrosine-protein kinase receptor Tie-1 (Homo sapiens) (UniProt P35590); settings: Compound concentration 1000.0 nM
[44] = target: Mitogen-activated protein kinase 13 (Homo sapiens) (UniProt O15264); settings: Compound concentration 1000.0 nM
[45] = test system: Tyrosine-protein kinase ABL1 (Homo sapiens), P00519 [F317I]; settings: Compound concentration 1000.0 nM
Chain of Tyrosine-protein kinase ABL1 (Homo sapiens), P00519 [F317I] (P00519 whole entry F317I): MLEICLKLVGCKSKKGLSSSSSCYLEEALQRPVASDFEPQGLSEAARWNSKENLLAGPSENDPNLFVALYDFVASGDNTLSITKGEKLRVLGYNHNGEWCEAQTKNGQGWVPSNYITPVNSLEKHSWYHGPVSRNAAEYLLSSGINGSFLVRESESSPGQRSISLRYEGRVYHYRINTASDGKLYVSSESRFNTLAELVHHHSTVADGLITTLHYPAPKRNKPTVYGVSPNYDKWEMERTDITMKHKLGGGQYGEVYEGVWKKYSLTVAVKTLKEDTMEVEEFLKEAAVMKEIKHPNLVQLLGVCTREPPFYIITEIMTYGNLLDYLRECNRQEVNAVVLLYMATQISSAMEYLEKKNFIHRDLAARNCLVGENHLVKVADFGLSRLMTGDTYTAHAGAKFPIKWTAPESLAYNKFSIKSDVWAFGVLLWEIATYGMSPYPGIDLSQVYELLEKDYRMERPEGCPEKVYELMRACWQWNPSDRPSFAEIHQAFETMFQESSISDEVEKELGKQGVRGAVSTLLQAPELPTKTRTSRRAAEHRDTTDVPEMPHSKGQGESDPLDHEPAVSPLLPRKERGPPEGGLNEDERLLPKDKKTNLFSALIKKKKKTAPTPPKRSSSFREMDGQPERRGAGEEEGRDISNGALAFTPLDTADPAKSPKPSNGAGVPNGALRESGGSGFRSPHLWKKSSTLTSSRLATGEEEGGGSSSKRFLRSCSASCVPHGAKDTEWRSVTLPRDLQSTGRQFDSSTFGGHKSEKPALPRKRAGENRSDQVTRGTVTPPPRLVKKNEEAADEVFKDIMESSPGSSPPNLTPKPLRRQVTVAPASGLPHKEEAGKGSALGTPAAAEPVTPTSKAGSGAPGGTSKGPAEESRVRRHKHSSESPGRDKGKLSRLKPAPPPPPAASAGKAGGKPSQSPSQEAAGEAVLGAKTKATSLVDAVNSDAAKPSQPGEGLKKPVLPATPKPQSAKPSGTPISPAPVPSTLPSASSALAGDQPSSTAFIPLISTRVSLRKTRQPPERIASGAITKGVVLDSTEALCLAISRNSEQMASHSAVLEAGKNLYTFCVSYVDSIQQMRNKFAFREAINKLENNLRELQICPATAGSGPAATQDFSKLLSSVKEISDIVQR

Chain of Serine/threonine-protein kinase Nek11 (Homo sapiens) (Q8NG66 whole entry, canonical isoform): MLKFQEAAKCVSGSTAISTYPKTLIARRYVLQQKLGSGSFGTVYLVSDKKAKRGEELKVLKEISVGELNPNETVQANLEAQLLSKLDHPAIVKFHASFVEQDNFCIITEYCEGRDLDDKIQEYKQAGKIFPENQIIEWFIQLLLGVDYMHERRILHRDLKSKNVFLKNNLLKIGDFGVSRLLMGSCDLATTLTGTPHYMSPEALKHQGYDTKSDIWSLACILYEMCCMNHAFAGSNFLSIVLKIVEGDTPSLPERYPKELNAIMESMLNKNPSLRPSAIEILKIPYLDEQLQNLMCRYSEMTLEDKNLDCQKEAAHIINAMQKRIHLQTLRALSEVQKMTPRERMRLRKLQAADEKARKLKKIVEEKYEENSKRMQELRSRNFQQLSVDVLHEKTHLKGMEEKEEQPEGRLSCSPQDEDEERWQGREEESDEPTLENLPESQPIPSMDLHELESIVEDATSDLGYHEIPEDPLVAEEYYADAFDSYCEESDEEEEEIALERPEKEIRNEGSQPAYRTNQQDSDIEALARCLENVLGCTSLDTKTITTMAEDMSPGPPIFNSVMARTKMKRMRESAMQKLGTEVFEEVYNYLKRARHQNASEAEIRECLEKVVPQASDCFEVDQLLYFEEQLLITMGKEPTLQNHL
Chain of Ankyrin repeat and protein kinase domain-containing protein 1 (Homo sapiens) (Q8NFD2 whole entry, the tested form may be a part): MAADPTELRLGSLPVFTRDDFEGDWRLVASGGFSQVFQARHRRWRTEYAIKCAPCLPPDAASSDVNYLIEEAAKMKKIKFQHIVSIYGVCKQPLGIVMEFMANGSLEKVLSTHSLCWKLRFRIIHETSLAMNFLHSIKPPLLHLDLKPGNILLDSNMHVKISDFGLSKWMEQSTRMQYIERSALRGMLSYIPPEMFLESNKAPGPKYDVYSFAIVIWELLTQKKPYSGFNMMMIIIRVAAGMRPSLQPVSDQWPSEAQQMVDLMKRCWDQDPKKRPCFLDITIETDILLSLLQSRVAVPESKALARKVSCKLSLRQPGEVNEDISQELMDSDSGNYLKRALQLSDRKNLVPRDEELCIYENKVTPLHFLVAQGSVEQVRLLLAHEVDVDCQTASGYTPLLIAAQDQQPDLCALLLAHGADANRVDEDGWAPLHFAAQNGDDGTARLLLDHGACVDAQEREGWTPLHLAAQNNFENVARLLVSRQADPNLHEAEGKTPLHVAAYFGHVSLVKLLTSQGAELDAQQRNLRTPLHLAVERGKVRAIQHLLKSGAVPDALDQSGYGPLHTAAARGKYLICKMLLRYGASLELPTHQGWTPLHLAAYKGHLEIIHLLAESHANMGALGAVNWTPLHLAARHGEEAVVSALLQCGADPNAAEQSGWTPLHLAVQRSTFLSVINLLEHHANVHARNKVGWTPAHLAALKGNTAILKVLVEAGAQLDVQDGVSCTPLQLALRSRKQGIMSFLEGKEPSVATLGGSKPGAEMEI
Chain of Proto-oncogene tyrosine-protein kinase receptor Ret (Homo sapiens) (P07949 whole entry): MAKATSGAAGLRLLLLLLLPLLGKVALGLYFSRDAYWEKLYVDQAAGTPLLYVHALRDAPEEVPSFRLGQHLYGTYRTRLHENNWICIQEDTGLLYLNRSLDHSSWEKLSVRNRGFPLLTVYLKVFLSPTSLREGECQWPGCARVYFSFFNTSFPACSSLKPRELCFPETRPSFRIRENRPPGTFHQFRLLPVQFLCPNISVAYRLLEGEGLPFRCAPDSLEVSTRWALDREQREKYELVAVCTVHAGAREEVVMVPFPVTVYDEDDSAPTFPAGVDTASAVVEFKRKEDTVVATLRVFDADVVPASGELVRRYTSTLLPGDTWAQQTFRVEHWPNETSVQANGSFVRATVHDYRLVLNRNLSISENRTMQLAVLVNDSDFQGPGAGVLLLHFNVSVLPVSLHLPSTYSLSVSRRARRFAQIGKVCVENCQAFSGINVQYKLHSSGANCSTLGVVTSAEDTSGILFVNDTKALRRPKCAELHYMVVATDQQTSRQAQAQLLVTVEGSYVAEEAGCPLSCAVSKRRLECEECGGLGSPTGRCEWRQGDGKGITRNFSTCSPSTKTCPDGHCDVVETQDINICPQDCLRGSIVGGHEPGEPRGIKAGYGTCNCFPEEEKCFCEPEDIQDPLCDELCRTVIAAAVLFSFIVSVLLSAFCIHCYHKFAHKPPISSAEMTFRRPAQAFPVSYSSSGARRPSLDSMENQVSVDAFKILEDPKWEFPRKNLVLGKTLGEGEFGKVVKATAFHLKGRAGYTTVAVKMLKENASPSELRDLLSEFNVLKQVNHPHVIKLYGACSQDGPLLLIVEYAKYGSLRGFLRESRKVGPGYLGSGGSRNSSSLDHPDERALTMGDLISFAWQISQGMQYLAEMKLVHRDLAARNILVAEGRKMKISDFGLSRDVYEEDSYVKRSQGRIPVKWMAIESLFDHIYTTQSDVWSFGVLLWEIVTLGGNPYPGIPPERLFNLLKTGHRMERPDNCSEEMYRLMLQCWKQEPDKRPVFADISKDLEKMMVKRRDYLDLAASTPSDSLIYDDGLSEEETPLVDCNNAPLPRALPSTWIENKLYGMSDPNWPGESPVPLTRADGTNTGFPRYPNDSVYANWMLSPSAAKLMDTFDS
Chain of TRAF2 and NCK-interacting protein kinase (Homo sapiens) (Q9UKE5 whole entry, looked up): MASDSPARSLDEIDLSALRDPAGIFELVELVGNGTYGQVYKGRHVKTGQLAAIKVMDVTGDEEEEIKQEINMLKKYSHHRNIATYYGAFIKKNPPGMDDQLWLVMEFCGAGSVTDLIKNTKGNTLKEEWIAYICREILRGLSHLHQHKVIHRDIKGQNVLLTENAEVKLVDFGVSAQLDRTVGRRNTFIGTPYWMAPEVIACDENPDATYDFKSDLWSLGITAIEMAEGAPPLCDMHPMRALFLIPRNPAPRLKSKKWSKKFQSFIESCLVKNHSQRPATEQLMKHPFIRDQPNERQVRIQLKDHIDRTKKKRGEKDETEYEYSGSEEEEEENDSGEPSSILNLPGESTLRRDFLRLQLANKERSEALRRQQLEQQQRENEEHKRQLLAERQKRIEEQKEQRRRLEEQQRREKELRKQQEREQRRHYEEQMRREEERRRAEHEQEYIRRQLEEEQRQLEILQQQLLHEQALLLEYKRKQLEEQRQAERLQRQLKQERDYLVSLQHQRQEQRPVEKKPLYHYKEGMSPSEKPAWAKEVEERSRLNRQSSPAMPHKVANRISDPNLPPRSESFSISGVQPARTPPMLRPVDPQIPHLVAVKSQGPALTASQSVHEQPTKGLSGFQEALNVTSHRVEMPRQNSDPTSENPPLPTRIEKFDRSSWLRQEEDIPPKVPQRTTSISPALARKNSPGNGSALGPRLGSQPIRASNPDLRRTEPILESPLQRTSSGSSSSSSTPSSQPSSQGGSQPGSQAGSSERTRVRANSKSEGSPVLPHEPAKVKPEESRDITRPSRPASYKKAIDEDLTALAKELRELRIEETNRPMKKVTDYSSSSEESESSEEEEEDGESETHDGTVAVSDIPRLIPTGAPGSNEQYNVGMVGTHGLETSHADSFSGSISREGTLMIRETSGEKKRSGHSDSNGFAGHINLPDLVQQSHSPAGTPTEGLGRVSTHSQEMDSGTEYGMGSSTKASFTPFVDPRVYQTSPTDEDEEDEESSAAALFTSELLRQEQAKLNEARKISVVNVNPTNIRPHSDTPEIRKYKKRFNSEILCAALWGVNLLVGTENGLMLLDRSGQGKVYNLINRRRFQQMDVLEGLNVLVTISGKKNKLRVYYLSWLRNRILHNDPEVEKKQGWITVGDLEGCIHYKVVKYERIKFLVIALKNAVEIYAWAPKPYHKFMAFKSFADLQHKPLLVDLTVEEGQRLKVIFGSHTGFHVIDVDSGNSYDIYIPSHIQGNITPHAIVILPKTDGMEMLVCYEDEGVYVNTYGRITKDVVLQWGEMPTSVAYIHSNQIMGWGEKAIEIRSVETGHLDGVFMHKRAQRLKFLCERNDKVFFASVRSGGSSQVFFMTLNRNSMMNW
Chain of Tyrosine-protein kinase ABL1 (Homo sapiens), P00519 [F317L] (P00519 whole entry F317L): as the sequence (P00519 whole entry F317I) above, with I317L counted along it

CCOCCn1cc(C(=O)Nc2ccc(-n3nc(-c4cccnc4)cc3C(F)(F)F)cn2)ccc1=O [BI 1935]
inactive: residual activity [1] 100% | residual activity [2] 100% | inhibition [3] 10.2% | residual activity [4] 83% | residual activity [5] 88% | residual activity [6] 53% | residual activity [7] 96% | residual activity [8] 100% | residual activity [9] 57% | inhibition [10] -2.98% | residual activity [11] 100% | residual activity [12] 80% | residual activity [13] 100% | residual activity [14] 98% | residual activity [15] 90% | residual activity [16] 97% | residual activity [17] 71% | residual activity [18] 100% | residual activity [19] 98% | residual activity [20] 100% | residual activity [21] 81% | residual activity [22] 100% | residual activity [23] 96% | residual activity [24] 100% | residual activity [25] 117% | residual activity [26] 73% | residual activity [27] 100% | residual activity [28] 100% | residual activity [29] 96% | residual activity [30] 100% | residual activity [31] 65% | inhibition [32] 0.656% | residual activity [33] 100% | residual activity [34] 79% | residual activity [35] 89% | residual activity [36] 93% | residual activity [37] 84% | residual activity [38] 86% | residual activity [39] 87% | residual activity [40] 97% | residual activity [41] 100% | residual activity [42] 85% | residual activity [43] 81% | residual activity [44] 97% | residual activity [45] 91%
